4 cell lines from the supplement of paper PMC10307832 can be followed below.

Experiment in all cases: relative viability (nuclei count vs DMSO), 5 days (fraction); higher = more cells survive
Compound in test [1]: O=C(/C=C/c1ccccc1)NC(NC(=S)Nc1cccc2cccnc12)C(Cl)(Cl)Cl [Salubrinal] + Cc1nc(Nc2ncc(C(=O)Nc3c(C)cccc3Cl)s2)cc(N2CCN(CCO)CC2)n1 [Dasatinib] (partner 0.075 µM)
The essentials: (§1)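 Five library-drug doses in √10 steps were combined with a fixed anchor-drug dose, or a single drug was given alone, by pin tool to lung cancer cell lines in 1536-well plates the day after seeding. Nuclei were stained and counted after 5 days. Relative viability is the nuclei count in treated wells over that in vehicle wells, taken as the median of duplicate plates.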

Compound in test [2]: Cc1ccc2nc(NCCN)c3ncc(C)n3c2c1 + O=C(CCCCCCC(=O)Nc1ccccc1)NO [Vorinostat] (partner 1 µM)
The essentials:
as §1

Compound in test [3]: O=C(/C=C/c1ccccc1)NC(NC(=S)Nc1cccc2cccnc12)C(Cl)(Cl)Cl [Salubrinal] + Nc1ncn([C@H]2C[C@H](O)[C@@H](CO)O2)c(=O)n1 [Decitabine] (partner 2 µM)
The essentials:
as §1

Compound in test [4]: O=C(/C=C/c1ccccc1)NC(NC(=S)Nc1cccc2cccnc12)C(Cl)(Cl)Cl [Salubrinal] + O=C(CCCCCCC(=O)Nc1ccccc1)NO [Vorinostat] (partner 1 µM)
The essentials:
as §1

SK-MES-1: the relative viability in test [1] (first compound 0.08 µM) stood at 0.428; in test [1] (first compound 0.253 µM), 0.32; in test [1] (first compound 0.8 µM), 0.408; in test [1] (first compound 2.53 µM), 0.371; in test [1] (first compound 8 µM), 0.271; in test [2] (first compound 0.04 µM), 1.19. Moreover, the relative viability in test [2] (first compound 0.1265 µM) amounted to 1.13; in test [2] (first compound 0.4 µM), 1.03; in test [2] (first compound 1.265 µM), 1.13; in test [2] (first compound 4 µM), 1.03; in test [3] (first compound 0.08 µM), 0.405; in test [3] (first compound 0.253 µM) it was 0.359. The relative viability is 0.365 in test [3] (first compound 0.8 µM); 0.356 in test [3] (first compound 2.53 µM); 0.495 in test [3] (first compound 8 µM); 1.35 in test [4] (first compound 0.08 µM); 1 in test [4] (first compound 0.253 µM); 1.28 in test [4] (first compound 0.8 µM). Besides, the relative viability in test [4] (first compound 2.53 µM) turned out to be 1.1; in test [4] (first compound 8 µM), 0.936.

In the case of SW 900, the relative viability in test [1] (first compound 0.08 µM) was found to be 1.09; in test [1] (first compound 0.8 µM), 0.66; in test [1] (first compound 2.53 µM), 0.584; in test [1] (first compound 8 µM), 0.497; in test [2] (first compound 0.1265 µM), 0.517; in test [2] (first compound 0.4 µM), 0.415. For the same cell line, the relative viability in test [2] (first compound 1.265 µM) was 0.421; in test [2] (first compound 4 µM), 0.487; in test [3] (first compound 0.08 µM), 0.483; in test [3] (first compound 0.253 µM) it was 0.466; in test [3] (first compound 0.8 µM), 0.512; in test [3] (first compound 2.53 µM), 0.419. Further, the relative viability in test [3] (first compound 8 µM) was 0.519; in test [4] (first compound 0.08 µM), 0.735; in test [4] (first compound 0.253 µM), 0.379; in test [4] (first compound 0.8 µM), 0.731; in test [4] (first compound 2.53 µM) it was 0.505; in test [4] (first compound 8 µM), 0.804.

Regarding SW 1573, the relative viability came out at 0.553 in test [1] (first compound 0.08 µM); 0.488 in test [1] (first compound 0.253 µM); 0.627 in test [1] (first compound 0.8 µM); 0.402 in test [1] (first compound 2.53 µM); 0.417 in test [1] (first compound 8 µM); 0.85 in test [2] (first compound 0.04 µM). Also, the relative viability turned out to be 0.903 in test [2] (first compound 0.1265 µM); 0.669 in test [2] (first compound 0.4 µM); 0.865 in test [2] (first compound 1.265 µM); 0.65 in test [2] (first compound 4 µM); 0.697 in test [3] (first compound 0.08 µM); 0.372 in test [3] (first compound 0.253 µM). The relative viability in test [3] (first compound 0.8 µM) worked out at 0.609; in test [3] (first compound 2.53 µM), 0.488; in test [3] (first compound 8 µM), 0.555; in test [4] (first compound 0.08 µM), 0.852; in test [4] (first compound 0.253 µM), 0.686; in test [4] (first compound 0.8 µM), 0.778. The figures for the relative viability in test [4] (first compound 2.53 µM) and in test [4] (first compound 8 µM) were 0.55 and 0.62, respectively.

Regarding UMC-11, the relative viability in test [1] (first compound 0.08 µM) was 0.654; in test [1] (first compound 0.253 µM), 0.306; in test [1] (first compound 0.8 µM), 0.621; in test [1] (first compound 2.53 µM), 0.458; in test [1] (first compound 8 µM), 0.471; in test [2] (first compound 0.04 µM), 0.421. The relative viability came out at 0.344 in test [2] (first compound 0.1265 µM); 0.372 in test [2] (first compound 0.4 µM); 0.371 in test [2] (first compound 1.265 µM); 0.357 in test [2] (first compound 4 µM); 0.548 in test [3] (first compound 0.08 µM); 0.608 in test [3] (first compound 0.253 µM). The relative viability in test [3] (first compound 0.8 µM) was 0.674; in test [3] (first compound 2.53 µM), 0.606; in test [3] (first compound 8 µM), 0.561; in test [4] (first compound 0.08 µM) it was 0.349; in test [4] (first compound 0.253 µM), 0.404; in test [4] (first compound 0.8 µM) it was 0.38. Besides, the relative viability worked out at 0.334 in test [4] (first compound 2.53 µM) and 0.398 in test [4] (first compound 8 µM).
